Measurements published in US20260256860A1, “TRADITIONAL CHINESE MEDICINE COMPOSITION FOR TREATING AMYOTROPHIC LATERAL SCLEROSIS AND USE THEREOF” (HEBEI YILING MEDICAL RESEARCH INSTITUTE CO., LTD, priority 2023, published 2026).
Where “and” joins values, the source holds several entries; their conditions need not be identical. Equal values may be shown once.

Experiments:
Type in all cases: in vivo
[1] = tested on: SOD1-G93A transgenic mice; assay: Time to onset of paralysis in SOD1-G93A transgenic mice; conditions: Riluzole 0.02 g/kg gavage
Procedure: Neurological function was evaluated during the dosing phase using the Snow scoring method twice weekly. […]
The time from administration to the first occurrence of a neurological function score ≥3.5 was defined as the time to onset of paralysis. The mean time to onset of paralysis of animals was calculated. […] The paralysis delay rate for each drug group was also calculated according to the following formula:
The time from administration to the first occurrence of a neurological function score ≥3.5 was defined as the time to onset of paralysis. The mean time to onset of paralysis of animals was calculated. […]

[2] = tested on: SOD1-G93A transgenic mice; assay: Neurological function score (Snow scoring) in SOD1-G93A transgenic mice; conditions: Riluzole 0.02 g/kg gavage
Procedure: (§1) After ALS model mice were determined to have significant changes compared to negative control mice in behavioral test by combining literature as well as prior experience, they were randomly grouped according to their body weight. The drug administration was started and mice were observed.
(§2) The corresponding drug solution was administered via gavage using a syringe at a volume of 10 ml/kg. The model group and negative control group were administered with an equivalent volume of sterile injectable water. The administration dose for each animal was adjusted weekly according to the animal's latest weighed weight.
Neurological function was evaluated during the dosing phase using the Snow scoring method twice weekly. The specific criteria for neurological system scoring are as follows. • 1.0 point—Abnormal extension or tremors of hind limbs of the mouse when suspended by tail. • 1.5 points—Weakness of unilateral hind limb • 2.0 points—Weakness of bilateral hind limbs along with abnormal gait. • 2.5 points—Obvious weakness of unilateral hind limb. • 3.0 points—Obvious weakness of bilateral hind limbs. • 3.5 points—Paralysis in unilateral hind limb. • 4.0 points—Paralysis in bilateral hind limbs. • 5.0 points—Inability of mouse to right itself from a supine position within 20 seconds.

[3] = tested on: SOD1-G93A transgenic mice; assay: Immunofluorescence of gastrocnemius muscle and spinal cord, SOD1-G93A transgenic mice; conditions: vs model control; Riluzole 0.02 g/kg; TCM-073 each administration group (1.5, 3.0, 6.0 g raw drug/kg); 30 days
Procedure: as §1, §2
(§3) After 30 days of administration, electrophysiological measurements were performed, and tissue material was collected for subsequent detections. • 2.7.1 Electrophysiological parameters
Based on the amount of spinal cord and muscle tissues harvested from mice, neuromuscular junction, stem cell regeneration, microglial senescence and degree of myelin and neuronal damage and repair were detected. For example, the muscular presynaptic marker (synaptotagmin-2) and the acetylcholine receptor (AChR) marker (α-BTX) were co-stained, the satellite cell marker (Pax7) and laminin 2a were co-stained, the myelin marker (myelin basic protein, MBP) was stained, and the neuronal marker (beta-III Tubulin, also known as Tuj-1) was stained. • 2.7.5 Molecular biological indicators
The muscular presynaptic marker (synaptotagmin-2) and acetylcholine receptor (AChR) marker (α-BTX) of the gastrocnemius muscle were detected by the immunofluorescence.
The satellite cell marker (Pax7) and laminin 2α of the gastrocnemius muscle were detected by the immunofluorescence.
The myelin marker (myelin basic protein, MBP) of the spinal cord was detected by the immunofluorescence.
The neuronal marker (beta-III Tubulin, also known as Tuj-1) of the spinal cord was detected by the immunofluorescence.

[4] = tested on: SOD1-G93A transgenic mice; assay: Compound muscle action potential electrophysiology in SOD1-G93A transgenic mice; conditions: Riluzole 0.02 g/kg gavage, 30 days
Procedure: • 1.3.1 Animal Strain: B6SJL-Tg (SOD1-G93A) 1 Gur/J (Stock Number: 002726) provided by The Jackson Laboratory (United States). […] Both males and females were included. • 1.3.4 Animal Age: 7-8 weeks old. • 1.3.5 Animal Weight: At the start of dosing the body weight of male mice was 23.9-31.3 g, and the body weight of female mice was 17.7-25.4 g. • 1.3.6 Animal Source: Purchased from The Jackson Laboratory (United States). Breeding was conducted by Jiangsu GemPhanmatech Co., Ltd. • 1.3.7 Animal Certification of Quality, issuing authority, and receipt date: Certification number 320727210100609023. License number SCXK (Jiangsu) 2018-0008. Issuing authority: Jiangsu GemPharmatech Co., Ltd. Receipt date: Oct. 13, 2021. • 1.3.8 Feeding Conditions: Mice were reared in cages at the Innovative Drug Evaluation Center of Hebei Research Institute of Integrated Traditional Chinese and Western Medicine. License Number: SYXK (Hebei) 2020-006. Lighting: 12 h/day. Temperature: 20-26° C. Relative Humidity: 40%-70%. • 1.3.9 Quarantine Process: Animals were subjected to adaptive feeding for at least 5 days. […] Experimental Animal Production License Number: SCXK (Beijing) 2019-0003. Product Batch Number: 21073213. Expiration date: 2022 Jan. 3. • 1.3.11 Water: Clean water prepared by the ROB-B drinking water system for laboratory animal was provided, and filled in water bottles for free drinking. The drinking water was detected annually for all indicators, including mainly microbiological indicators, toxicological indicators, sensory characteristics, and general chemical parameters, and the detection was commissioned to a qualified institution. Microbial limit detection was performed every 2 months, which was commissioned to the Quality Control Department of Shijiazhuang Yiling Pharmaceutical Co., Ltd. The detection reports were stored by the animal department and archived annually. • 1.3.12 Bedding: Corn cob bedding (common grade) provided by Beijing Keao Xieli Feed Co., Ltd., was sterilized by high temperature and high pressure before use. Experimental Animal Production License Number: SCXK (Beijing) 2020-0010. Batch Number: 21099811. • 1.3.13 Marking: Mice were marked with ear tags, provided by Globalebio (Beijing) Technology Co., Ltd.
as §1
The drug was orally administered via gavage, consistent with the clinically recommended oral administration.
The administration dose for mice was 10 times the clinical dose, approximately 0.02 g/kg. The used administration volume was 10 ml/kg and administration concentration was 0.02 g/10 ml. […] During the preparation, one tablet was taken, ground with sterile injectable water and adjusted to a final volume of 25 ml. The obtained liquor can be used based on the number of animals.
The proposed clinical dose of TCM-073 was 18 g of raw drug/day. This test set three doses: low dose (1.5 g raw drug/kg), medium dose (3.0 g raw drug/kg), and high dose (6.0 g raw drug/kg), corresponding to 5, 10, and 20 times the clinical dose, respectively (See Table 14 for details). An appropriate amount of the drug was weighed and ground using sterile injectable water as the solvent to prepare high, medium, and low doses.
as §2
Based on preliminary experimental experience, literature review, and the disease characteristics of this mouse strain, the administration was started when the mice were 70 days old. […]

[5] = tested on: SOD1-G93A transgenic mice; assay: Serum malondialdehyde (MDA) in SOD1-G93A transgenic mice; conditions: Mus musculus, po, 720 h; read-out: % Inhibition rate (on oxidative damage, from MDA content)
Procedure: Blood of mice was collected by removal of eyeball. The blood samples were allowed to stand until supernatant separated out, and then centrifuged at 3,000 rpm for 10 minutes at 4° C. to isolate serum. The serum was aliquoted into EP tubes and stored in an ultra-low temperature refrigerator (−80° C.). MDA content was measured. The inhibition rate on oxidative damage by each drug group was calculated according to MDA content, following the formula of.
Blood of mice was collected by removal of eyeball. Blood samples were allowed to stand until supernatant separated out, and then centrifuged at 3,000 rpm for 10 minutes at 4° C. to isolate serum. The MDA content was measured using a kit, and the inhibition rate on oxidative damage by each drug group was calculated according to MDA content.

[6] = tested on: SOD1-G93A transgenic mice; assay: HE staining of sciatic nerve, lesion grading, SOD1-G93A transgenic mice; set-up: key to Axonal degeneration with myelin degeneration, lesion grade of individual animal: mild (+); moderate (++); moderately severe (+++); severe (++++); conditions: for Lesion score (divided by gender): median of lesion grade points; for Axonal degeneration with myelin degeneration, lesion grade of individual animal: sciatic nerve HE, individual animals, listed as Positive drug control group
Procedure: as §1, §2, §3
HE staining was carried out to observe gastrocnemius muscle and sciatic nerve. Toluidine blue staining was carried out to observe the morphology and number of motor neurons in the spinal cord. • 2.7.4 Immunofluorescence

[7] = tested on: SOD1-G93A transgenic mice; assay: Immunoblotting of MBP and SV2A in spinal cord, SOD1-G93A transgenic mice; conditions: Riluzole 0.02 g/kg gavage, 30 days, negative control 1.00
Procedure: as §1, §2, §3
Based on the amount of spinal cord tissue harvested from mice, myelin- and synapse-related molecular biological indicators were detected. The myelin- and synapse-related indicators included myelin basic protein (MBP) and synaptic vesicle protein 2A(SV2A).
Based on the amount of spinal cord tissue harvested from mice, myelin- and synapse-related molecular biological indicators, including myelin basic protein (MBP) and synaptic vesicle protein 2A (SV2A), were detected.

[8] = tested on: SOD1-G93A transgenic mice; assay: Hanging test in SOD1-G93A transgenic mice; conditions: Riluzole 0.02 g/kg gavage, 90 second cut-off
Procedure: as §1, §2
• 2.6.1 The tail suspension test was carried out to observe straightening reflex of limbs. […] The scoring criteria are as follows: • 0 points—No flexion of the hindlimbs observed. • 1 point—Flexion observed in unilateral hindlimb, with no obvious flexion in the other. • 2 points—Flexion observed in bilateral hindlimbs. Mice with a score of 2 points were considered to be in the symptomatic phase. The tail suspension test was stopped when all ALS mice reached a score of 2 points. • 2.6.2 Hanging Test: The mouse was placed on a 3-mesh screen. The screen was then rapidly inverted, causing the mouse to hang upside down, and the timer was started. A 90 second cut-off time was set. The mice with a hanging time of less than 90 seconds were noted, and the actual time they remained hanged was recorded. The hanging test was discontinued upon the occurrence of death in ALS mice. […] The severity of this abnormality correlates with the degree of muscle atrophy and loss of muscle strength. In this study, the onset of disease in transgenic mice was determined based on the results of the tail suspension test. Additionally, guided by literature review and previous experimental experience, each mouse was sequentially evaluated by both the tail suspension and hanging tests.

[9] = Riluzole 0.02 g/kg gavage, female
[10] = Riluzole 0.02 g/kg gavage, male

Which “Time to onset of paralysis” value ([1]; female) does the source give for `Nc1nc2ccc(OC(F)(F)F)cc2s1` [Riluzole] here?
Its value is 139.6 ± 5.7 days.

What about the “Time to onset of paralysis” value ([1]; male) of the same compound?
The value was 129.2 ± 18.9 days.

And the Neurological function score ([2]; 31 d of administration)?
Its Neurological function score is 2.2 ± 0.4.

What about the Neurological function score ([2]; 34 d of administration) of the same compound?
Its Neurological function score is 2.2 ± 0.4.

And the Neurological function score ([2]; 39 d of administration)?
The Neurological function score was 2.2 ± 0.5.

What about the Neurological function score ([2]; 42 d of administration) of the same compound?
Its Neurological function score is 2.3 ± 0.5.

And the Neurological function score ([2]; 46 d of administration)?
The Neurological function score was 2.2 ± 0.4.

And the “Co-localization degree of synaptotagmin-2 and α-BTX (neuromuscular junction), gastrocnemius muscle” value [3]?
Its value is “increased the co-localization degree of neuromuscular junctions”.

What about the “MBP (myelin marker) expression in spinal cord, immunofluorescence” value [3] of the same compound?
Its value is “increased the expression levels of the myelin marker”.

What about the “Number of Pax7-positive satellite cells in the gastrocnemius muscle” value [3] of the same compound?
Its value is “increased the number of positive satellite cells in the gastrocnemius muscle”.

What about the “Tuj-1 (neuronal marker) expression in spinal cord, immunofluorescence” value [3] of the same compound?
The value was “increased the expression levels of the myelin marker and neuronal marker”.

What about the “Peak value of action potential” value ([4]; female) of the same compound?
The value was 10.4 ± 4.0.

And the “Time course within region of interest of action potential” value (“Time course within region” for short) ([4]; female)?
The value was 0.0018 ± 0.0002.

What about the “Wave amplitude of action potential” value ([4]; female) of the same compound?
The value was 14.8 ± 5.6.

And the “Peak value of action potential” value ([4]; male)?
Its value is 8.8 ± 2.2.

And the “Time course within region” value ([4]; male)?
Its value is 0.0016 ± 0.0001.

What about the “Wave amplitude of action potential” value ([4]; male) of the same compound?
The value was 11.2 ± 3.9.

And the “Peak value of action potential” value ([4]; no division by gender)?
Its value is 9.6 ± 3.3.

And the “Time course within region” value ([4]; no division by gender)?
The value was 0.0017 ± 0.0002.

What about the “Wave amplitude of action potential” value ([4]; no division by gender) of the same compound?
The value was 13.0 ± 5.0.

What about the inhibition at 20 mg/kg [5] of the same compound?
The inhibition at 20 mg/kg was 20%.

What about the “Sciatic nerve axonal degeneration with myelin degeneration, number of samples per lesion grade” value ([6]; Riluzole 0.02 g/kg gavage, 6 samples) of the same compound?
The value was “myelin degeneration (1 sample: +++, 4 samples: ++, 1 sample: +)”.

And the “Lesion score (divided by gender)” value [6, 9]?
Its value is 2.

And the “Lesion score (divided by gender)” value [6, 10]?
Its value is 2.

What about the “Group Score (lesion)” value ([6]; Riluzole 0.02 g/kg gavage, median of lesion grade points of the group) of the same compound?
The value was 2.

And the “Axonal degeneration with myelin degeneration, lesion grade of individual animal” value [6, 9]?
Its value is “+ and ++ (2×)”.

And the “Axonal degeneration with myelin degeneration, lesion grade of individual animal” value [6, 10]?
Its value is “++ (2×) and +++”.

What about the “Sciatic nerve pathological changes (HE staining) compared to the model control group” value ([6]; Riluzole 0.02 g/kg, TCM-073 high dose 6.0 g raw drug/kg) of the same compound?
The value was “slightly milder”.

What about the “MBP content in spinal cord” value [7] of the same compound?
The value was 0.99 ± 0.62.

What about the “SV2A content in spinal cord” value [7] of the same compound?
The value was 0.41 ± 0.15.

And the Hanging time ([8]; 31 d of administration)?
The Hanging time was 63.3 ± 29.2 s.

And the Hanging time ([8]; 34 d of administration)?
The Hanging time was 57.6 ± 2.6 s.

What about the Hanging time ([8]; 39 d of administration) of the same compound?
The Hanging time was 46.5 ± 29.8 s.

And the Hanging time ([8]; 42 d of administration)?
The Hanging time was 40.8 ± 30.7 s.

And the Hanging time ([8]; 46 d of administration)?
The Hanging time was 33.8 ± 27.2 s.
